Measured values from paper PMC9516332 (Frontiers in Oncology, 2022).
Read-outs that look alike come from different tables or passages of the source.

How the values were obtained:
[1] = test system: AP-1060 (ETV6-NTRK3); test: Cell viability assay; conditions: read-out: IC50 in cell proliferation assay
[2] = test system: 134 cancer cell lines; test: Cell viability assay (ATPlite, 72 hours), IC50 on cancer cell line panel

Cc1cc(Nc2ncc(Cl)c(Nc3ccccc3S(=O)(=O)C(C)C)n2)c(OC(C)C)cc1C1CCNCC1 [ceritinib] was tested, and the IC50 [1] was 1.77 µM, the IC50 ([2]; HEC-6, read-out: IC50 in cell proliferation assay, HEC-6 cell line (EGFR p.A289V)) was 3.25 µM and the IC50 ([2]; Homo sapiens, 769-P, read-out: IC50 in cell proliferation assay, cell line 769-P) was 2.85 µM. The IC50 ([2]; Homo sapiens, 786-0, read-out: IC50 in cell proliferation assay, cell line 786-O) was 3.28 µM, the IC50 ([2]; Homo sapiens, A 172, read-out: IC50 in cell proliferation assay, cell line A-172) was 3.94 µM and the IC50 ([2]; Homo sapiens, A204, read-out: IC50 in cell proliferation assay, cell line A-204) was 2.68 µM. The IC50 ([2]; Homo sapiens, A498, read-out: IC50 in cell proliferation assay, cell line A-498) was 4.17 µM, the IC50 ([2]; Homo sapiens, A549, read-out: IC50 in cell proliferation assay, cell line A-549) was 4.56 µM and the IC50 ([2]; Homo sapiens, A704, read-out: IC50 in cell proliferation assay, cell line A-704) was 6.19 µM. It also gave an IC50 ([2]; Homo sapiens, A-375, read-out: IC50 in cell proliferation assay, cell line A-375 (BRAF p.V600E)) of 1.61 µM, an IC50 ([2]; Homo sapiens, A-427, read-out: IC50 in cell proliferation assay, cell line A-427) of 1.45 µM and an IC50 ([2]; Homo sapiens, ACHN, read-out: IC50 in cell proliferation assay, cell line ACHN) of 4.78 µM. The IC50 ([2]; Homo sapiens, AN3-CA, read-out: IC50 in cell proliferation assay, cell line AN3-CA (FGFR2 p.N549K)) was 4.14 µM, the IC50 ([2]; Homo sapiens, ASPC1, read-out: IC50 in cell proliferation assay, cell line AsPC-1) was 1.34 µM and the IC50 ([2]; Homo sapiens, AU565, read-out: IC50 in cell proliferation assay, cell line AU565 (ERBB2 amplification)) was 3.26 µM. The IC50 ([2]; Homo sapiens, BT-20, read-out: IC50 in cell proliferation assay, cell line BT-20) was 6.05 µM, the IC50 ([2]; Homo sapiens, BT-474, read-out: IC50 in cell proliferation assay, cell line BT-474 (ERBB2 amplification)) was 3.2 µM and the IC50 ([2]; Homo sapiens, BT-549, read-out: IC50 in cell proliferation assay, cell line BT-549) was 3.83 µM. For the same molecule, the IC50 ([2]; Homo sapiens, BXPC-3, read-out: IC50 in cell proliferation assay, cell line BxPC-3) was 1.7 µM, the IC50 ([2]; Homo sapiens, C-33-A, read-out: IC50 in cell proliferation assay, cell line C-33 A) was 4.46 µM and the IC50 ([2]; Homo sapiens, CAL-27, read-out: IC50 in cell proliferation assay, cell line CAL-27) was 3.02 µM. The IC50 ([2]; Homo sapiens, CCF-STTG1, read-out: IC50 in cell proliferation assay, cell line CCF-STTG1) was 4.5 µM, the IC50 ([2]; Homo sapiens, CCRF-CEM, read-out: IC50 in cell proliferation assay, cell line CCRF-CEM) was 3.89 µM and the IC50 ([2]; Homo sapiens, COLO 205, read-out: IC50 in cell proliferation assay, cell line COLO 205 (BRAF p.V600E)) was 1.88 µM. For the same molecule, the IC50 ([2]; Homo sapiens, COLO-829, read-out: IC50 in cell proliferation assay, cell line COLO 829 (BRAF p.V600E)) was 3.26 µM, the IC50 ([2]; Homo sapiens, DLD-1, read-out: IC50 in cell proliferation assay, cell line DLD-1) was 4.38 µM and the IC50 ([2]; Homo sapiens, DU-4475, read-out: IC50 in cell proliferation assay, cell line DU4475 (BRAF p.V600E)) was 2.18 µM. The IC50 ([2]; Homo sapiens, Daoy, read-out: IC50 in cell proliferation assay, cell line Daoy) was 4.95 µM, the IC50 ([2]; Homo sapiens, DoTc2-4510, read-out: IC50 in cell proliferation assay, cell line DoTc2 4510) was 1.19 µM and the IC50 ([2]; Homo sapiens, EOL1, read-out: IC50 in cell proliferation assay, cell line EoL-1 (FIP1L1-PDGFRA)) was 0.564 µM. For the same molecule, the IC50 ([2]; Homo sapiens, FaDu, read-out: IC50 in cell proliferation assay, cell line FaDu) was 3.25 µM, the IC50 ([2]; Homo sapiens, G-361, read-out: IC50 in cell proliferation assay, cell line G-361 (BRAF p.V600E)) was 1.51 µM and the IC50 ([2]; Homo sapiens, HCC827, read-out: IC50 in cell proliferation assay, cell line HCC827 (EGFR exon19del)) was 3.71 µM. The IC50 ([2]; Homo sapiens, HCC4006, read-out: IC50 in cell proliferation assay, cell line HCC4006 (EGFR exon19del)) was 2.73 µM, the IC50 ([2]; Homo sapiens, HCT-15, read-out: IC50 in cell proliferation assay, cell line HCT 15) was 3.81 µM and the IC50 ([2]; Homo sapiens, HCT-116, read-out: IC50 in cell proliferation assay, cell line HCT 116) was 2.72 µM. It also gave an IC50 ([2]; Homo sapiens, HEC-1, read-out: IC50 in cell proliferation assay, HEC-1 cell line) of 2.71 µM, an IC50 ([2]; Homo sapiens, HEC-1B, read-out: IC50 in cell proliferation assay, HEC-1-B cell line (EGFR p.A864V)) of 1.96 µM and an IC50 ([2]; Homo sapiens, HL-60, read-out: IC50 in cell proliferation assay, HL-60 cell line) of 0.951 µM. It also gave an IC50 ([2]; Homo sapiens, HT, read-out: IC50 in cell proliferation assay, HT cell line) of 4.74 µM, an IC50 ([2]; Homo sapiens, HT-1080, read-out: IC50 in cell proliferation assay, HT-1080 cell line) of 2 µM and an IC50 ([2]; Homo sapiens, Hs746T, read-out: IC50 in cell proliferation assay, Hs 746.T cell line (MET exon14skip + amplification)) of 3.34 µM. It also gave an IC50 ([2]; Homo sapiens, Hs-578T, read-out: IC50 in cell proliferation assay, Hs 578T cell line) of 4.07 µM, an IC50 ([2]; Homo sapiens, HuTu80, read-out: IC50 in cell proliferation assay, HuTu 80 cell line) of 1.67 µM and an IC50 ([2]; Homo sapiens, J82, read-out: IC50 in cell proliferation assay, J82 cell line) of 4.5 µM. For the same molecule, the IC50 ([2]; Homo sapiens, Jurkat E6.1, read-out: IC50 in cell proliferation assay, Jurkat E6.1 cell line) was 4.07 µM, the IC50 ([2]; Homo sapiens, K562, read-out: IC50 in cell proliferation assay, K-562 cell line) was 3.97 µM and the IC50 ([2]; Homo sapiens, KATO III, read-out: IC50 in cell proliferation assay, KATO III cell line (FGFR2 amplification)) was 2.36 µM. It also gave an IC50 ([2]; Homo sapiens, KG-1, read-out: IC50 in cell proliferation assay, KG-1 cell line (FGFR1OP2-FGFR1)) of 3.85 µM, an IC50 ([2]; Homo sapiens, KLE, read-out: IC50 in cell proliferation assay, KLE cell line) of 3.58 µM and an IC50 ([2]; Homo sapiens, KMS-11, read-out: IC50 in cell proliferation assay, KMS-11 cell line (FGFR3 p.Y373C)) of 1.31 µM. The IC50 ([2]; Homo sapiens, KU812, read-out: IC50 in cell proliferation assay, Ku812 cell line) was 1.88 µM, the IC50 ([2]; Homo sapiens, Kasumi 1, read-out: IC50 in cell proliferation assay, Kasumi-1 cell line (KIT p.N822K)) was 1.04 µM and the IC50 ([2]; Homo sapiens, LC-2-ad, read-out: IC50 in cell proliferation assay, LC-2/ad cell line (CCDC6-RET)) was 2.02 µM. It also gave an IC50 ([2]; Homo sapiens, LNCaP-Clone-FGC, read-out: IC50 in cell proliferation assay, LNCaP clone FGC cell line) of 3.72 µM, an IC50 ([2]; Homo sapiens, LS174T, read-out: IC50 in cell proliferation assay, LS174T cell line) of 2 µM and an IC50 ([2]; Homo sapiens, LS-411N, read-out: IC50 in cell proliferation assay, LS411N cell line (BRAF p.V600E)) of 1.97 µM. For the same molecule, the IC50 ([2]; Homo sapiens, LoVo, read-out: IC50 in cell proliferation assay, LoVo cell line) was 3.47 µM, the IC50 ([2]; Homo sapiens, MCF7, read-out: IC50 in cell proliferation assay, MCF-7 cell line) was 2.77 µM and the IC50 ([2]; Homo sapiens, MDA-MB-231, read-out: IC50 in cell proliferation assay, MDA-MB-231 cell line) was 0.782 µM. The IC50 ([2]; Homo sapiens, MDA-MB-453, read-out: IC50 in cell proliferation assay, MDA-MB-453 cell line) was 0.944 µM, the IC50 ([2]; Homo sapiens, MDA-MB-468, read-out: IC50 in cell proliferation assay, MDA-MB-468 cell line) was 4.45 µM and the IC50 ([2]; Homo sapiens, MG-63, read-out: IC50 in cell proliferation assay, MG-63 cell line) was 3.04 µM. The IC50 ([2]; Homo sapiens, MIA PaCa-2, read-out: IC50 in cell proliferation assay, MIA PaCa-2 cell line) was 2.19 µM, the IC50 ([2]; Homo sapiens, MKN-45, read-out: IC50 in cell proliferation assay, MKN45 cell line (MET amplification)) was 3.52 µM and the IC50 ([2]; Homo sapiens, MOLM-13, read-out: IC50 in cell proliferation assay, MOLM-13 cell line (FLT3 ITD)) was 0.995 µM.
